From patent US9428726B2, “Modified host cells with efflux pumps” (priority 2010, dated 2016) come the findings set out here.

For data set [1], the system named is E. coli DH1 ΔacrAB. Conditions: for toxicity of the biofuel to cell growth: E. coli host, in words; for biofuel level that inhibited growth: added to pooled culture in M9 minimal medium, aimed at an inhibitory concentration that reduced growth by 25%. As to the method: In order to screen the efflux pump library against a variety of biofuels we devised a competition-based strategy to select for pumps that improved biofuel tolerance (FIG. 1A). Cells containing plasmids with individual pumps were grown separately and then pooled so that all individual strains were represented equally. This pooled culture was then grown both with and without biofuel, and maintained through serial dilutions every 10-14 hours over a total of 96 hours. At each dilution time point, plasmids from each culture were isolated and a custom microarray was used to quantify the amount of each efflux pump plasmid present in the culture (Methods).
Pooled culture glycerol stocks were used to inoculate M9 minimal medium with 30 μg/ml kanamycin and 10 μM IPTG. The culture was then divided into tubes to a final volume of 5 ml and biofuel was added directly to the tubes. All conditions were prepared in triplicate. Cultures were grown at 37° C. with orbital shaking at 200 rpm for all experiments.
Every 10-14 hours the cultures were diluted 1:100 into 5 ml of fresh M9 minimal medium with kanamycin, IPTG, and biofuel (where applicable). For the time-course assay, cultures were spun down at the completion of a growth cycle and plasmids were isolated. For end point competition assays, plasmid was isolated from the culture after 72 hours of serial dilution.
Custom microarrays (NimbleGen, Roche, USA) were used to measure the relative quantities of the efflux pumps present in the plasmid DNA isolated from the competition cultures. Arrays were designed so that they contained probes for all HAE1 annotated efflux pumps from all sequenced bacterial genomes. 12×135K arrays were used to allow for 12 experiments per slide.
Plasmid DNA was labeled and hybridized following the protocol for NimbleGen Comparative Genomic Hybridization Microarrays with minor modifications (Supporting Methods). Data were normalized using the standard settings for RMA analysis in the NimbleScan software. Probe values were averaged using a custom Matlab script (Mathworks, Inc.). […] For the positive hybridization control, all library plasmids were prepared individually and combined in vitro in equal proportions. For the negative hybridization control, a plasmid with the same vector backbone as those in the library, but no efflux pump, was isolated from DH1 ΔacrAB. Both hybridization controls were labeled and hybridized to the array using the methods described above.
This required the use of a co-solvent in order to accurately pipette small volumes. In both cases dimethylformamide (DMF) was used as the co-solvent. […] Other biofuels were added directly without the use of a co-solvent.

For data set [2], the system named is E. coli DH1 ΔacrAB. Format: cell-based. Conditions: for effect of efflux pumps on tolerance to the biofuel (survival relative to pump-free negative control): top performing pump versus negative control, FIG. 3B and 3D. As to the method: Individual strains were adapted to M9 minimal medium as described in the Supporting Methods. […] The biofuel being tested was added directly to the cultures and they were grown overnight at 37° C. with orbital shaking. For end point measurements, the optical density was measured after 14 hours of growth in triplicate 5 ml cultures. For growth curve measurements, cultures were grown in triplicate in 24-well plates with 800 μl per well and optical density was measured every 10 minutes with a plate reader (BioTek Synergy 4, USA).

The mark [3] stands for this setting: 2% geranyl acetate, serial dilution competition.

Where two headings read alike, the source gives them in different places.

For `CC(C)=CCC/C(C)=C/CO` [geraniol], in the data set on E. coli DH1 ΔacrAB [1], the “toxicity of the biofuel to cell growth” value was “high and quite toxic”; the “biofuel level that inhibited growth” value stood at 0.05 % v/v. Moreover, the “effect of efflux pumps on tolerance to the biofuel (survival relative to pump-free negative control)” value with E. coli DH1 ΔacrAB [2] is listed as “increase survival several-fold”.
With `CC(=O)OC/C=C(\C)CCC=C(C)C` [geranyl acetate], the “biofuel level that inhibited growth” value with E. coli DH1 ΔacrAB [1] is given as 2 % v/v. The “effect of efflux pumps on tolerance to the biofuel (survival relative to pump-free negative control)” value in the data set on E. coli DH1 ΔacrAB [2] was “essentially confer immunity”.
`CC(C)CCO` [isopentanol]: in the data set with E. coli DH1 ΔacrAB [1], the “toxicity of the biofuel to cell growth” value is reported as “toxic” and the “biofuel level that inhibited growth” value stood at 0.25 % v/v. Besides, the “effect of efflux pumps on tolerance to the biofuel (survival relative to pump-free negative control)” value with E. coli DH1 ΔacrAB [2] was “none of the pumps we tested confer an advantage”.
In the same order, the values of `CCCCO` [n-butanol] are “toxic”, 0.5 % v/v and “none of the pumps we tested confer an advantage”.

B1: NP_250708: Pseudomonas aeruginosa PA01 efflux pump, accession of inner membrane protein, SEQ ID NO:4 (protein, listed as Pseudomonas aeruginosa)
chain: MARFFIDRPVFAWVISLLIVLAGVLAIRFLPVAQYPDIAPPVVNVSASYPGASAKVVEEAVTAIIEREMNGAPGLLYTKATSSTGQASLTLTFRQGVNADLAAVEVQNRLKIVESRLPESVRRDGIYVEKAADSIQLIVTLTSSSGRYDAMELGEIASSNVLQALRRVEGVGKVETWGAEYAMRIWPDPAKLTSMNLSASDLVNAVRRHNARLTVGDIGNLGVPDSAPISATVKVDDTLVTPEQFGEIPLRIRADGGAIRLRDVARVEFGQSEYGFVSRVNQMTATGLAVKMAPGSNAVATAKRIRATLDELSRYFPEGVSYNIPYDTSAFVEISIRKVVSTLLEAMLLVFAVMYLFMQNFRATLIPTLVVPVALLGTFTVMLGLGFSINVLTMFGMVLAIGILVDDAIIVVENVERLMAEEGLSPHDATVKAMRQISGAIVGITVVLVSVFVPMAFFSGAVGNIYRQFAVTLAVSIGFSAFLALSLTPALCATLLRPIDADHHEKRGFFGWFNRAFLRLTGRYRNAVAGILARPIRWMLVYTLVIGVVALLFVRLPQAFLPEEDQGDFMIMVMQPEGTPMAETMANVGDVERYLAEHEPVAYAYAVGGFSLYGDGTSSAMIFATLKDWSERREASQHVGAIVERINQRFAGLPNRTVYAMNSPPLPDLGSTSGFDFRLQDRGGVGYEALVKARDQLLARAAEDPRLANVMFAGQGEAPQIRLDIDRRKAETLGVSMDEINTTLAVMFGSDYIGDFMHGSQVRKVVVQADGAKRLGIDDIGRLHVRNEQGEMVPLATFAKAAWTLGPPQLTRYNGYPSFNLEGQAAPGYSSGEAMQAMEQLMQGLPEGIAHEWSGQSFEERLSGAQAPALFALSVLIVFLALAALYESWSIPLAVILVVPLGVLGALLGVSLRGLPNDIYFKVGLITIIGLSAKNAILIIEVAKDHYQEGMSLLQATLEAARLRLRPIVMTSLAFGFGVVPLALSSGAGSGAQVAIGTGVLGGIVTATVLAVFLVPLFFLVVGRLFRLRKAPRTGNSPQIPTEQA
On to B1, for which, in the data set on E. coli DH1 ΔacrAB [1] (setting [3]), the “outcome of efflux pump in competition” value is reported as “survived the competition”.

B2: MexB: Pseudomonas aeruginosa PAO1 MexAB-OprM multidrug efflux pump (protein, UniProt P52002 1-1046, looked up)
Multidrug resistance protein …: MSKFFIDRPIFAWVIALVIMLAGGLSILSLPVNQYPAIAPPAIAVQVSYPGASAETVQDTVVQVIEQQMNGIDNLRYISSESNSDGSMTITVTFEQGTDPDIAQVQVQNKLQLATPLLPQEVQRQGIRVTKAVKNFLMVVGVVSTDGSMTKEDLSNYIVSNIQDPLSRTKGVGDFQVFGSQYSMRIWLDPAKLNSYQLTPGDVSSAIQAQNVQISSGQLGGLPAVKGQQLNATIIGKTRLQTAEQFENILLKVNPDGSQVRLKDVADVGLGGQDYSINAQFNGSPASGIAIKLATGANALDTAKAIRQTIANLEPFMPQGMKVVYPYDTTPVVSASIHEVVKTLGEAILLVFLVMYLFLQNFRATLIPTIAVPVVLLGTFGVLAAFGFSINTLTMFGMVLAIGLLVDDAIVVVENVERVMAEEGLSPREAARKSMGQIQGALVGIAMVLSAVFLPMAFFGGSTGVIYRQFSITIVSAMALSVIVALILTPALCATMLKPIEKGDHGEHKGGFFGWFNRMFLSTTHGYERGVASILKHRAPYLLIYVVIVAGMIWMFTRIPTAFLPDEDQGVLFAQVQTPPGSSAERTQVVVDSMREYLLEKESSSVSSVFTVTGFNFAGRGQSSGMAFIMLKPWEERPGGENSVFELAKRAQMHFFSFKDAMVFAFAPPSVLELGNATGFDLFLQDQAGVGHEVLLQARNKFLMLAAQNPALQRVRPNGMSDEPQYKLEIDDEKASALGVSLADINSTVSIAWGSSYVNDFIDRGRVKRVYLQGRPDARMNPDDLSKWYVRNDKGEMVPFNAFATGKWEYGSPKLERYNGVPAMEILGEPAPGLSSGDAMAAVEEIVKQLPKGVGYSWTGLSYEERLSGSQAPALYALSLLVVFLCLAALYESWSIPFSVMLVVPLGVIGALLATSMRGLSNDVFFQVGLLTTIGLSAKNAILIVEFAKELHEQGKGIVEAAIEACRMRLRPIVMTSLAFILGVVPLAISTGAGSGSQHAIGTGVIGGMVTATVLAIFWVPLFYVAVSTLFKDEASKQQASVEKGQ
For the molecule B2, the “outcome of efflux pump in competition” value in the data set on E. coli DH1 ΔacrAB [1] (setting [3]) is “survived the competition”; in the data set with E. coli DH1 ΔacrAB [1] (2% α-pinene, 72 hours serial dilution), “borderline survivor”. Moreover, in the data set with E. coli DH1 ΔacrAB [2] (with 2% α-pinene, grown independently), the “growth of individual pump-expressing strain” value was “survives well in α-pinene for the first 10 hours”.

B3: AcrB: Escherichia coli K12 AcrAB efflux pump, plasmid-based copy (protein, UniProt P31224 1-1049, looked up)
Multidrug efflux pump subunit …: MPNFFIDRPIFAWVIAIIIMLAGGLAILKLPVAQYPTIAPPAVTISASYPGADAKTVQDTVTQVIEQNMNGIDNLMYMSSNSDSTGTVQITLTFESGTDADIAQVQVQNKLQLAMPLLPQEVQQQGVSVEKSSSSFLMVVGVINTDGTMTQEDISDYVAANMKDAISRTSGVGDVQLFGSQYAMRIWMNPNELNKFQLTPVDVITAIKAQNAQVAAGQLGGTPPVKGQQLNASIIAQTRLTSTEEFGKILLKVNQDGSRVLLRDVAKIELGGENYDIIAEFNGQPASGLGIKLATGANALDTAAAIRAELAKMEPFFPSGLKIVYPYDTTPFVKISIHEVVKTLVEAIILVFLVMYLFLQNFRATLIPTIAVPVVLLGTFAVLAAFGFSINTLTMFGMVLAIGLLVDDAIVVVENVERVMAEEGLPPKEATRKSMGQIQGALVGIAMVLSAVFVPMAFFGGSTGAIYRQFSITIVSAMALSVLVALILTPALCATMLKPIAKGDHGEGKKGFFGWFNRMFEKSTHHYTDSVGGILRSTGRYLVLYLIIVVGMAYLFVRLPSSFLPDEDQGVFMTMVQLPAGATQERTQKVLNEVTHYYLTKEKNNVESVFAVNGFGFAGRGQNTGIAFVSLKDWADRPGEENKVEAITMRATRAFSQIKDAMVFAFNLPAIVELGTATGFDFELIDQAGLGHEKLTQARNQLLAEAAKHPDMLTSVRPNGLEDTPQFKIDIDQEKAQALGVSINDINTTLGAAWGGSYVNDFIDRGRVKKVYVMSEAKYRMLPDDIGDWYVRAADGQMVPFSAFSSSRWEYGSPRLERYNGLPSMEILGQAAPGKSTGEAMELMEQLASKLPTGVGYDWTGMSYQERLSGNQAPSLYAISLIVVFLCLAALYESWSIPFSVMLVVPLGVIGALLAATFRGLTNDVYFQVGLLTTIGLSAKNAILIVEFAKDLMDKEGKGLIEATLDAVRMRLRPILMTSLAFILGVMPLVISTGAGSGAQNAVGTGVMGGMVTATVLAIFFVPVFFVVVRRRFSRKNEDIEHSHTVDHH
As for B3, the “outcome of efflux pump in competition” value in the data set on E. coli DH1 ΔacrAB [1] (0.025% limonene, 72 hours serial dilution) is “best exported”; in the data set on E. coli DH1 ΔacrAB [1] (0.05% geraniol, 72 hours serial dilution), “best exported”; with E. coli DH1 ΔacrAB [1] (setting [3]), “survived the competition”.
